Test results reported in patent publication US6887876B2, “Benzamidine derivatives” (Ortho-McNeil Pharmaceutical, Inc., priority 2000, dated 2005).
Where two headings read alike, the source gives them in different places.

Assays:
μ-opioid receptor = μ-opioid receptor (Rattus norvegicus, UniProt P33535); test: Rat brain μ-opioid receptor binding assay ([3H]DAMGO)
δ-opioid receptor = δ-opioid receptor (Rattus norvegicus, UniProt P33533); test: Rat brain δ-opioid receptor binding assay ([3H]DPDPE)
[1] = rat forebrain preparation, [3H]DAMGO, 25° C., read-out: μ-Opioid Receptor Binding (Ki nM)
[2] = rat forebrain preparation, [3H]DPDPE, 25° C., read-out: δ-Opioid Receptor Binding (Ki nM)

Sequence of δ-opioid receptor (P33533 whole entry): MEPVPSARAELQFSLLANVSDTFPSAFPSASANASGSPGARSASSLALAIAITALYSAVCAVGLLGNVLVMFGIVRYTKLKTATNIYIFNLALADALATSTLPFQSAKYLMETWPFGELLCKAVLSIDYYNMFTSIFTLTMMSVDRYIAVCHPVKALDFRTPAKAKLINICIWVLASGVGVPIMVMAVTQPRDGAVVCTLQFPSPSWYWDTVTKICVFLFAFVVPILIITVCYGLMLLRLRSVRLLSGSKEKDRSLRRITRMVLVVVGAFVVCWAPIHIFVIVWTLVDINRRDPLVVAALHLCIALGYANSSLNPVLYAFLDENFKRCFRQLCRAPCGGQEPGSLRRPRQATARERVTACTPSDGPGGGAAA
Sequence of μ-opioid receptor (P33535 whole entry): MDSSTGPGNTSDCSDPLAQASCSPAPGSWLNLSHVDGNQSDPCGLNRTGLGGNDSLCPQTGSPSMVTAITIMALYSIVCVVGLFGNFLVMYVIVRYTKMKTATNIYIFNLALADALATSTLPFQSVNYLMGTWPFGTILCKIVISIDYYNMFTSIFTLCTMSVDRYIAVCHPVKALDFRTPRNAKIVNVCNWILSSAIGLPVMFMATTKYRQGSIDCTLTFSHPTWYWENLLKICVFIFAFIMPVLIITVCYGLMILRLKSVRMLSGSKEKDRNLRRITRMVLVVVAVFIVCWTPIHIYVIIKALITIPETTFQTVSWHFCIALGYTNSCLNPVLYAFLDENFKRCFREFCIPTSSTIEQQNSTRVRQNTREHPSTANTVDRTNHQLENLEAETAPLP

Molecule	Ki (μ-opioid receptor) [nM]	Ki (δ-opioid receptor) [nM]	Ki (μ-opioid receptor; [1]) [nM]	Ki (δ-opioid receptor; [2]) [nM]
CCN(CC)C(=O)c1ccc(C(=Nc2ccc(Cl)cc2)N2CCN(Cc3ccccc3)CC2)cc1 [Compound 28, 4-[[(4-chlorophenyl)imino][4-(phenylmethyl)-1-piperazinyl]methyl]-N,N-diethyl-benzamide]	> 10000	142	–	–
COC(=O)c1ccc(C(=Nc2ccccc2)N2CCCN(CCc3ccccc3)CC2)cc1 [Compound 58, 4-[[hexahydro-4-(2-phenylethyl)-1H-1,4-diazepin-1-yl](phenylimino)methyl]-benzoic acid methyl ester]	–	–	232	820
C=CCN1CCN(C(=Nc2ccccc2)c2ccc(C(=O)N(CC)CC)cc2)CC1 [Compound 15, N,N-diethyl-4-[(phenylimino)[4-(2-propenyl)-1-piperazinyl]methyl]-benzamide]	> 10000	859	–	–
CCN(CC)C(=O)c1ccc(C(=Nc2ccccc2C(F)(F)F)N2CCN(Cc3ccccc3)CC2)cc1 [Compound 23, N,N-diethyl-4-[[4-(phenylmethyl)-1-piperazinyl][[2-(trifluoromethyl)phenyl]imino]methyl]-benzamide]	1200	1.22	–	–
COCCN1CCN(C(=Nc2ccccc2C(F)(F)F)c2ccc(C(=O)OC)cc2)CC1 [Compound 44, 4-[[4-(2-methoxyethyl)-1-piperazinyl][[2-(trifluoromethyl)phenyl]imino]methyl]-benzoic acid methyl ester]	–	–	9150	82.6
C=CCN1CCN(C(=Nc2ccccc2Cl)c2cccc(C(=O)OC)c2)CC1 [Compound 54, 3-[[(2-chlorophenyl)imino][4-(2-propenyl)-1-piperazinyl]methyl]-benzoic acid methyl ester]	–	–	1610	2150
COC(=O)c1ccc(C(=Nc2ccccc2)N2CCN(CCc3cccs3)CC2)cc1 [Compound 42, 4-[(phenylimino)[4-[2-(2-thienyl)ethyl]-1-piperazinyl]methyl]-benzoic acid methyl ester]	–	–	> 10000	> 10000
COC(=O)c1ccc(C(=Nc2ccccc2Cl)N2CCN(c3ccccc3)CC2)cc1 [Compound 35, 4-[[(2-chlorophenyl)imino](4-phenyl-1-piperazinyl)methyl]-benzoic acid methyl ester]	–	–	> 10000	7640
C=CCN1CCN(C(=Nc2ccccc2Cl)c2cccc(C(=O)N(CC)CC)c2)CC1 [Compound 52, 3-[[(2-chlorophenyl)imino][4-(2-propenyl)-1-piperazinyl]methyl]-N,N-diethyl-benzamide]	600	487	–	–
COCCN1CCN(C(=Nc2ccccc2Cl)c2ccc(C(=O)OC)cc2)CC1 [Compound 45, 4-[[(2-chlorophenyl)imino][4-(2-methoxyethyl)-1-piperazinyl]methyl]-benzoic acid methyl ester]	–	–	> 10000	299
CCN1CCN(C(=Nc2ccccc2F)c2ccc(C(=O)OC)cc2)CC1 [Compound 33, 4-[(4-ethyl-1-piperazinyl)[(3-fluorophenyl)imino]methyl]-benzoic acid methyl ester]	–	–	> 10000	230
COC(=O)c1ccc(C(=Nc2ccccc2Cl)N2CCN(CCc3cccs3)CC2)cc1 [Compound 43, 4-[[(2-chlorophenyl)imino][4-[2-(2-thienyl)ethyl]-1-piperazinyl]methyl]-benzoic acid methyl ester]	–	–	> 10000	> 10000
CCN(CC)C(=O)c1ccc(C(=Nc2ccccc2Cl)N2CCCN(CCc3ccccc3)CC2)cc1 [Compound 57, 4-[[(2-chlorophenyl)imino][hexahydro-4-(2-phenylethyl)-1H-1,4-diazepin-1-yl]methyl]-N,N-diethyl-benzamide]	618	29.6	–	–
CCN(CC)C(=O)c1ccc(C(=Nc2ccccc2)N2CCCN(CCc3ccccc3)CC2)cc1 [Compound 56, N,N-diethyl-4-[[hexahydro-4-(2-phenylethyl)-1H-1,4-diazepin-1-yl](phenylimino)methyl]-benzamide]	–	396	–	–
COC(=O)c1ccc(C(=Nc2ccccc2Cl)N2CCN(CCc3ccccc3)CC2)cc1 [Compound 40, 4-[[(2-chlorophenyl)imino][4-(2-phenylethyl)-1-piperazinyl]methyl]-benzoic acid methyl ester]	–	–	> 10000	> 10000
CCN(CC)C(=O)c1ccc(C(=Nc2ccccc2C(F)(F)F)N2CCN(CCOC)CC2)cc1 [Compound 26, N,N-diethyl-4-[[4-(2-methoxyethyl)-1-piperazinyl][[2-(trifluoromethyl)phenyl]imino]methyl]-benzamide]	2960	22.9	–	–

Molecule	Ki (μ-opioid receptor) [nM]	Ki (δ-opioid receptor) [nM]	Ki (μ-opioid receptor; [1]) [nM]	Ki (δ-opioid receptor; [2]) [nM]
COC(=O)c1ccc(C(=Nc2ccccc2Cl)N2CCCN(CCc3ccccc3)CC2)cc1 [Compound 59, 4-[[(2-chlorophenyl)imino][hexahydro-4-(2-phenylethyl)-1H-1,4-diazepin-1-yl]methyl]-benzoic acid methyl ester]	–	–	197	101
CCN(CC)C(=O)c1ccc(C(=Nc2ccccc2)N2CCN(CCc3cccs3)CC2)cc1 [Compound 22, N,N-diethyl-4-[(phenylimino)[4-[2-(2-thienyl)ethyl]-1-piperazinyl]methyl]-benzamide]	> 10000	764	–	–
COC(=O)c1ccc(C(=Nc2ccc(Cl)cc2)N2CCN(Cc3ccccc3)CC2)cc1 [Compound 38, 4-[[(4-chlorophenyl)imino][4-(phenylmethyl)-1-piperazinyl]methyl]-benzoic acid methyl ester]	–	–	> 10000	246
CCN(CC)C(=O)c1ccc(C(=Nc2ccccc2C(F)(F)F)N2CCN(CCc3ccccc3)CC2)cc1 [Compound 24, N,N-diethyl-4-[[4-(2-phenylethyl)-1-piperazinyl][[2-(trifluoromethyl)phenyl]imino]methyl]-benzamide]	1000	545	–	–
COC(=O)c1ccc(C(=Nc2ccccc2)N2CCN(Cc3ccccc3)CC2)cc1 [Compound 37, 4-[(phenylimino)[4-(phenylmethyl)-1-piperazinyl]methyl]-benzoic acid methyl ester]	–	–	> 10000	1690
CCN(CC)C(=O)c1ccc(C(=Nc2ccccc2)N2CCN(Cc3ccccc3)CC2)cc1 [Compound 17, N,N-diethyl-4-[(phenylimino)[4-(phenylmethyl)-1-piperazinyl]methyl]-benzamide]	> 10000	212	–	–
COC(=O)c1ccc(C(=Nc2ccccc2C(F)(F)F)N2CCN(CCc3ccccc3)CC2)cc1 [Compound 41, 4-[[4-(2-phenylethyl)-1-piperazinyl][[2-(trifluoromethyl)phenyl]imino]methyl]-benzoic acid methyl ester]	–	–	> 10000	> 10000
4-[(4-ethenyl-1-piperazinyl)(phenylimino)methyl]-benzoic acid methyl ester [Compound 36]	–	–	> 10000	954
CCN(CC)C(=O)c1ccc(C(=Nc2ccccc2Cl)N2CCN(CCc3ccccc3)CC2)cc1 [Compound 25, 4-[[(2-chlorophenyl)imino][4-(2-phenylethyl)-1-piperazinyl]methyl]-N,N-diethyl-benzamide]	> 10000	> 10000	–	–
C=CCN1C[C@H](C)N(/C(=N/c2ccccc2)c2ccc(C(=O)OC)cc2)C[C@H]1C [Compound 51, 4-[(E)-[(2S,5R)-2,5-dimethyl-4-(2-propenyl)piperazinyl](phenylimino)methyl]-benzoic acid methyl ester]	–	–	> 10000	405
CCN(CC)C(=O)c1ccc(C(=Nc2ccccc2Cl)N2CCN(CCOC)CC2)cc1 [Compound 27, 4-[[(2-chlorophenyl)imino][4-(2-methoxyethyl)-1-piperazinyl]methyl]-N,N-diethyl-benzamide]	> 10000	53.5	–	–
COC(=O)c1ccc(C(=Nc2ccccc2Cl)N2CCN(Cc3ccccc3)CC2)cc1 [Compound 39, 4-[[(2-chlorophenyl)imino][4-(phenylmethyl)-1-piperazinyl]methyl]-benzoic acid methyl ester]	–	–	> 10000	2010
C=CCN1CCN(C(=Nc2ccccc2)c2cccc(C(=O)N(CC)CC)c2)CC1 [Compound 53, N,N-diethyl-3-[(phenylimino)[4-(2-propenyl)-1-piperazinyl]methyl]-benzamide]	–	–	> 10000	7030
3-[(phenylimino)[4-(2-propenyl)-1-piperazinyl]methyl]-benzoic acid methyl ester [Compound 55]	–	–	> 10000	1170
4-[[(2-chlorophenyl)imino](4-propyl-1-piperazinyl)methyl]-N,N-diethyl-benzamide [Compound 18]	–	–	> 10000	157
